Laboratory results: patent US5593970A, “Heterocyclic anthracycline analogs” (priority 1994, dated 1997)
Counter-ions that a name gives are not always drawn. Like-named read-outs stand apart in the source and are kept apart here.

Experiments:
Experiment in all cases: Microculture tetrazolium assay
Assay type in all cases: cell-based
T47D = settings: Homo sapiens
LOX = tested on: LOX
HT29 = settings: Homo sapiens, HT-29, HT29
SKOV3 = settings: Homo sapiens, SK-OV-3, SKOV3
SKVLB = settings: for VLB/OV3: IC50 ratio SKVLB/SKOV3; for IC50: SKVLB

CC(=O)OCC1([C@@H]2CC3=C(C(=O)c4c(cc5ccccc5c4OC(C)=O)C3=O)[C@@H](O[C@H]3C[C@H](NC(=O)C(F)(F)F)[C@H](O)[C@H](C)O3)O2)OCCCO1 [BCH-1178]
IC50 (T47D; read-out: IC50): 7.06 µM | IC50 (LOX; read-out: IC50): 12.3 µM | IC50 (HT29): 5.64 µM | IC50 (SKOV3; read-out: IC50): 6.93 µM | VLB/OV3 (SKVLB): 1.85 | IC50 (SKVLB; read-out: IC50): 12.8 µM

CC(=O)OCC1(C2CC3=C(C(=O)c4c(cc5ccccc5c4OC(C)=O)C3=O)C(O[C@H]3C[C@H](NC(=O)C(F)(F)F)[C@H](O)[C@H](C)O3)O2)OCCCO1 (stereo partly drawn) [BCH-1179]
IC50 (T47D; read-out: IC50): 4.9 µM | IC50 (LOX; read-out: IC50): 10.9 µM | IC50 (HT29; read-out: IC50): 4.03 µM | IC50 (SKOV3; read-out: IC50): 5.25 µM | VLB/OV3 (SKVLB): 1.58 | IC50 (SKVLB; read-out: IC50): 8.31 µM

C[C@@H]1O[C@@H](O[C@@H]2O[C@@H](C(=O)CO)CC3=C2C(=O)c2cc4ccccc4c(O)c2C3=O)C[C@H](NC(=O)C(F)(F)F)[C@@H]1O [BCH-1182, (1 'S,1S,3R)-1,2,3,4,5,12-hexahydro-6-hydroxy-3-hydroxy-aceto-1-N-trifluoroacetyl-L-daunosamine-(2-oxo) naphthacene-5,12-dione]
IC50 (T47D; read-out: IC50): 28.3 µM | IC50 (LOX; read-out: IC50): 1.98 µM | IC50 (HT29; read-out: IC50): 25.4 µM | IC50 (SKOV3; read-out: IC50): 23.6 µM | VLB/OV3 (SKVLB): 3.12 | IC50 (SKVLB; read-out: IC50): 73.7 µM

C=CC1CC2=C(C(=O)c3cc4ccccc4c(O)c3C2=O)C(O[C@H]2C[C@H](N)[C@H](O)[C@H](C)O2)O1 (stereo partly drawn) [BCH-1611]
IC50 (T47D; read-out: IC50): 2.16 µM | IC50 (LOX; read-out: IC50): 4.3 µM | IC50 (HT29; read-out: IC50): 2.81 µM | IC50 (SKOV3; read-out: IC50): 1.89 µM | VLB/OV3 (SKVLB): 3.87 | IC50 (SKVLB; read-out: IC50): 7.32 µM

CC[C@@H]1CC2=C(C(=O)c3cc4ccccc4c(O)c3C2=O)[C@@H](O[C@H]2C[C@H](N)[C@H](O)[C@H](C)O2)O1 [BCH-1614, (1'S,1R,3R)-5,12-dioxo-3-ethyl-6-hydroxy-1-(2',3',6'-trideoxy-3'-amino-4'-hydroxy-L-lyxohexopyranose)-3,4,5,12-tetrahydroanthraceno[2,3-c]pyran hydrochloride]
IC50 (T47D): 0.742 µM | IC50 (LOX): 1.09 µM | IC50 (HT29): 3.58 µM | IC50 (SKOV3): 1.02 µM | VLB/OV3 (SKVLB): 1.64 | IC50 (SKVLB): 1.67 µM

CC(=O)[C@@H]1CC2=C(C(=O)c3cc4ccccc4c(O)c3C2=O)[C@@H](O[C@H]2C[C@H](NC(=O)C(F)(F)F)[C@H](I)[C@H](C)O2)O1 [BCH-1617]
IC50 (T47D; read-out: IC50): 2.43 µM | IC50 (LOX; read-out: IC50): 3.04 µM | IC50 (HT29; read-out: IC50): 1.2 µM | IC50 (SKOV3; read-out: IC50): 2.15 µM | VLB/OV3 (SKVLB): 1.38 | IC50 (SKVLB; read-out: IC50): 2.96 µM

CC(=O)[C@H]1CC2=C(C(=O)c3cc4ccccc4c(O)c3C2=O)[C@H](O[C@H]2C[C@H](NC(=O)C(F)(F)F)[C@H](I)[C@H](C)O2)O1 [BCH-1618]
IC50 (T47D): 3.66 µM | IC50 (LOX; read-out: IC50): 3.75 µM | IC50 (HT29; read-out: IC50): 3.63 µM | IC50 (SKOV3; read-out: IC50): 3.26 µM | VLB/OV3 (SKVLB): .098 | IC50 (SKVLB; read-out: IC50): 3.21 µM

CC(=O)Nc1nc([C@@H]2CC3=C(C(=O)c4cc5ccccc5c(O)c4C3=O)[C@@H](O[C@H]3C[C@H](NC(=O)C(F)(F)F)[C@H](O)[C@H](C)O3)O2)cs1 [BCH-1623, (1'S,1R,3S)-6-hydroxy-1-(2',3',6'-trideoxy-3'-trifluoroacetamido-L-lyxohexopyranose)-3-(2-aza-3-acetamido-thienyl)-5,12-dioxo-3,4,5,12-tetrahydro-anthraceno-[2,3-c]-pyran]
IC50 (T47D; read-out: IC50): 42.8 µM | IC50 (LOX; read-out: IC50): 44.2 µM | IC50 (HT29; read-out: IC50): 32.1 µM | IC50 (SKOV3; read-out: IC50): 49.5 µM | VLB/OV3 (SKVLB): 1.82 | IC50 (SKVLB; read-out: IC50): 90.2 µM

CC(=O)[C@@H]1Cc2c(O)c3c(c(O)c2[C@@H](O[C@H]2C[C@H](O)[C@H](O)[C@H](C)O2)O1)C(=O)c1ccccc1C3=O [BCH-1624]
IC50 (T47D; read-out: IC50): 100 µM | IC50 (LOX; read-out: IC50): 100 µM | IC50 (HT29; read-out: IC50): 100 µM | IC50 (SKOV3; read-out: IC50): 85 µM | IC50 (SKVLB; read-out: IC50): 100 µM

CC(=O)[C@H]1Cc2c(O)c3c(c(O)c2[C@H](O[C@H]2C[C@H](O)[C@H](O)[C@H](C)O2)O1)C(=O)c1ccccc1C3=O [BCH-1625]
IC50 (T47D; read-out: IC50): 34 µM | IC50 (LOX; read-out: IC50): 16 µM | IC50 (HT29; read-out: IC50): 61 µM | IC50 (SKOV3; read-out: IC50): 5.1 µM | VLB/OV3 (SKVLB): 8.8 | IC50 (SKVLB; read-out: IC50): 45 µM

CC(=O)O[C@@H]1[C@H](C)O[C@@H](OC2OC(C(=O)CO)CC3=C2C(=O)c2cc4ccccc4c(O)c2C3=O)C[C@@H]1OC(C)=O (stereo partly drawn) [BCH-1626]
IC50 (T47D; read-out: IC50): 5.39 µM | IC50 (LOX; read-out: IC50): 2.99 µM | IC50 (HT29; read-out: IC50): 5.18 µM | IC50 (SKOV3; read-out: IC50): 2.32 µM | VLB/OV3 (SKVLB): 3.30 | IC50 (SKVLB; read-out: IC50): 7.66 µM

CC(=O)C1CC2=C(C(=O)c3cc4ccccc4c(O)c3C2=O)C(OCCNC(=O)OC(C)(C)C)S1 (stereo not drawn) [BCH-1627]
IC50 (T47D; read-out: IC50): 7.1 µM | IC50 (LOX; read-out: IC50): 5 µM | IC50 (HT29; read-out: IC50): 11 µM | IC50 (SKOV3; read-out: IC50): 7.1 µM | VLB/OV3 (SKVLB): 2.0 | IC50 (SKVLB; read-out: IC50): 14 µM

CC(=O)C1CC2=C(C(=O)c3cc4ccccc4c(O)c3C2=O)C(OCCN)S1 (stereo not drawn) [BCH-1628]
IC50 (T47D; read-out: IC50): 2.89 µM | IC50 (LOX; read-out: IC50): 3.52 µM | IC50 (HT29; read-out: IC50): 3.43 µM | IC50 (SKOV3; read-out: IC50): 2.71 µM | VLB/OV3 (SKVLB): 2.18 | IC50 (SKVLB): 5.92 µM

CC[C@H]1CC2=C(C(=O)c3cc4ccccc4c(O)c3C2=O)[C@H](O[C@H]2C[C@H](O)[C@H](O)[C@H](C)O2)O1 [BCH-1629]
IC50 (T47D; read-out: IC50): 9 µM | IC50 (LOX; read-out: IC50): 7.4 µM | IC50 (HT29; read-out: IC50): 22 µM | IC50 (SKOV3; read-out: IC50): 6.7 µM | VLB/OV3 (SKVLB): 2.8 | IC50 (SKVLB): 19 µM

CC[C@@H]1CC2=C(C(=O)c3cc4ccccc4c(O)c3C2=O)[C@@H](O[C@H]2C[C@H](O)[C@H](O)[C@H](C)O2)O1 [BCH-1630]
IC50 (T47D; read-out: IC50): 18 µM | IC50 (LOX; read-out: IC50): 8.5 µM | IC50 (HT29; read-out: IC50): 66 µM | IC50 (SKOV3; read-out: IC50): 12 µM | VLB/OV3 (SKVLB): 2.6 | IC50 (SKVLB; read-out: IC50): 31 µM

CC[C@H]1Cc2c(O)c3c(c(O)c2[C@H](O[C@H]2C[C@H](N)[C@H](O)[C@H](C)O2)O1)C(=O)c1ccccc1C3=O [BCH-1633]
IC50 (T47D; read-out: IC50): 0.735 µM | IC50 (LOX; read-out: IC50): 0.201 µM | IC50 (HT29; read-out: IC50): 0.0995 µM | IC50 (SKOV3; read-out: IC50): 0.245 µM | VLB/OV3 (SKVLB): 1.92 | IC50 (SKVLB; read-out: IC50): 0.47 µM

CC(=O)C1CC2=C(C(=O)c3cc4ccccc4c(O)c3C2=O)C(O[C@H]2C[C@H](NC(=O)C(F)(F)F)[C@H](O)[C@H](C)O2)S1 (stereo partly drawn) [BCH-1635]
IC50 (T47D; read-out: IC50): 3.11 µM | IC50 (LOX; read-out: IC50): 1 µM | IC50 (HT29; read-out: IC50): 0.876 µM | IC50 (SKOV3; read-out: IC50): 1.99 µM | VLB/OV3 (SKVLB): 1.60 | IC50 (SKVLB; read-out: IC50): 3.18 µM

CC(=O)C1CC2=C(C(=O)c3cc4ccccc4c(O)c3C2=O)C(OC[C@H]2COC(C)(C)O2)S1 (stereo partly drawn) [BCH-1636]
IC50 (T47D; read-out: IC50): 2.97 µM | IC50 (LOX; read-out: IC50): 1.23 µM | IC50 (HT29; read-out: IC50): 2.53 µM | IC50 (SKOV3; read-out: IC50): 2.65 µM | VLB/OV3 (SKVLB): 1.71 | IC50 (SKVLB; read-out: IC50): 4.52 µM

CC(=O)C1CC2=C(C(=O)c3cc4ccccc4c(O)c3C2=O)C(O[C@H]2C[C@H](NC(=O)C(F)(F)F)[C@@H](O)[C@H](C)O2)O1 (stereo partly drawn) [BCH-1637]
IC50 (T47D): 5.24 µM | IC50 (LOX; read-out: IC50): 2.07 µM | IC50 (HT29; read-out: IC50): 0.691 µM | IC50 (SKOV3; read-out: IC50): 2.28 µM | VLB/OV3 (SKVLB): 1.68 | IC50 (SKVLB; read-out: IC50): 3.82 µM

CC(F)(F)C1CC2=C(CO1)C(=O)c1cc3ccccc3c(O)c1C2=O (stereo not drawn) [BCH-1638, 3-(1',1'-difluoroethyl)-6 and 11-hydroxy-1,2,3,4-tetrahydro-(2-oxygen)-naphthacene-5,12-dione]
IC50 (T47D; read-out: IC50): > 100 µM | IC50 (LOX; read-out: IC50): > 100 µM | IC50 (HT29; read-out: IC50): > 100 µM | IC50 (SKOV3; read-out: IC50): > 100 µM | IC50 (SKVLB; read-out: IC50): > 100 µM

CC(F)(F)C1CC2=C(CO1)C(=O)c1c(cc3ccccc3c1O)C2=O (stereo not drawn) [BCH-1639, 3-(1',1'-difluoroethyl)-6 and 11-hydroxy-1,2,3,4-tetrahydro-(2-oxygen)-naphthacene-5,12-dione]
IC50 (T47D; read-out: IC50): > 100 µM | IC50 (LOX; read-out: IC50): > 100 µM | IC50 (HT29; read-out: IC50): > 100 µM | IC50 (SKOV3; read-out: IC50): > 100 µM | IC50 (SKVLB; read-out: IC50): > 100 µM

CC(=O)[C@@H]1CC2=C(C(=O)c3cc4ccccc4c(O)c3C2=O)[C@@H](O[C@H]2C[C@H](NC(=O)C(F)(F)F)[C@H](O)[C@H](C)O2)S1 [BCH-1641]
IC50 (T47D; read-out: IC50): 2 µM | IC50 (LOX; read-out: IC50): 1.35 µM | IC50 (HT29; read-out: IC50): 0.871 µM | IC50 (SKOV3; read-out: IC50): 1.68 µM | VLB/OV3 (SKVLB): 1.63 | IC50 (SKVLB; read-out: IC50): 2.74 µM

CC(=O)C1CC2=C(C(=O)c3cc4ccccc4c(O)c3C2=O)C(OC[C@H](O)CO)S1 (stereo partly drawn) [BCH-1645]
IC50 (T47D; read-out: IC50): 3.73 µM | IC50 (LOX; read-out: IC50): 1.37 µM | IC50 (HT29; read-out: IC50): 0.597 µM | IC50 (SKOV3; read-out: IC50): 2.02 µM | VLB/OV3 (SKVLB): 1.90 | IC50 (SKVLB; read-out: IC50): 3.83 µM
